Reference: PubChem BioAssay AID2060491 (Molecular Pharmacology Branch, DTP, NCI, 2025)

Tested on: 857933-349-R-J2-PDC complex spheroids, viability
Assay: Anticancer human tumor 857933-349-R-J2-PDC patient-derived colon adenocarcinoma cell line growth inhibition [GQUAD]
Conditions: for IC50: curve of first compound; for viability, T/C: stronger effect = lower value
How it was run: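 Viability of tumor cells grown as complex spheroids with endothelial and stromal cells, exposed to drug combinations. Top concentration at or near clinical Cmax (else 10 microM), diluted in half-log increments.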

[1] = second compound 0.0316 µM, first compound 0.0316 µM
[2] = second compound 0.0316 µM, first compound 0.1 µM
[3] = second compound 0.0316 µM, first compound 0.316 µM
[4] = second compound 0.0316 µM, first compound 1 µM
[5] = second compound 0.0316 µM, first compound 3.16 µM
[6] = second compound 0.0316 µM, first compound 10 µM
[7] = second compound 0.1 µM, first compound 0.0316 µM
[8] = second compound 0.1 µM, first compound 0.1 µM
[9] = second compound 0.1 µM, first compound 0.316 µM
[10] = second compound 0.1 µM, first compound 1 µM
[11] = second compound 0.1 µM, first compound 3.16 µM
[12] = second compound 0.1 µM, first compound 10 µM
[13] = second compound 0.316 µM, first compound 0.0316 µM
[14] = second compound 0.316 µM, first compound 0.1 µM
[15] = second compound 0.316 µM, first compound 0.316 µM
[16] = second compound 0.316 µM, first compound 1 µM
[17] = second compound 0.316 µM, first compound 3.16 µM
[18] = second compound 0.316 µM, first compound 10 µM
[19] = second compound 1 µM, first compound 0.0316 µM
[20] = second compound 1 µM, first compound 0.1 µM
[21] = second compound 1 µM, first compound 0.316 µM
[22] = second compound 1 µM, first compound 1 µM
[23] = second compound 1 µM, first compound 3.16 µM
[24] = second compound 1 µM, first compound 10 µM
[25] = second compound 3.16 µM, first compound 0.0316 µM
[26] = second compound 3.16 µM, first compound 0.1 µM
[27] = second compound 3.16 µM, first compound 0.316 µM
[28] = second compound 3.16 µM, first compound 1 µM
[29] = second compound 3.16 µM, first compound 3.16 µM
[30] = second compound 3.16 µM, first compound 10 µM
[31] = second compound 10 µM, first compound 0.0316 µM
[32] = second compound 10 µM, first compound 0.1 µM
[33] = second compound 10 µM, first compound 0.316 µM
[34] = second compound 10 µM, first compound 1 µM
[35] = second compound 10 µM, first compound 3.16 µM
[36] = second compound 10 µM, first compound 10 µM
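Note: spheroids exposed to compounds for one week before readout.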
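Throughout, for viability, T/C: percent viability relative to vehicle DMSO wells taken as 100%.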

`C#Cc1c(F)ccc2cc(O)cc(-c3ncc4c(N5CC6CCC(C5)N6)nc(OCC56CCCN5CC(F)C6)nc4c3F)c12` (stereo unspecified) + Cc1cnc(CNC(=O)c2c(=O)c3ccc(N4CCCN(C)CC4)nc3n3c2sc2ccccc23)cn1 was tested, and the IC50 (second compound 0.0316 µM) was over 10000 nM, the IC50 (second compound 0.1 µM) was over 10000 nM and the IC50 (second compound 0.316 µM) was under 31.6 nM. It also gave an IC50 (second compound 1 µM) of under 31.6 nM, an IC50 (second compound 3.16 µM) of under 31.6 nM and an IC50 (second compound 10 µM) of under 31.6 nM. For the same molecule, the viability, T/C [1] was 101%, the viability, T/C [2] was 81.6% and the viability, T/C [3] was 72.6%. It also gave a viability, T/C [4] of 64.5%, a viability, T/C [5] of 76.5% and a viability, T/C [6] of 63.5%. For the same molecule, the viability, T/C [7] was 59%, the viability, T/C [8] was 64.7% and the viability, T/C [9] was 54.6%. It also gave a viability, T/C [10] of 61.5%, a viability, T/C [11] of 68.3% and a viability, T/C [12] of 64.3%. For the same molecule, the viability, T/C [13] was 23.7%, the viability, T/C [14] was 24.6% and the viability, T/C [15] was 22.4%. It also gave a viability, T/C [16] of 19.5%, a viability, T/C [17] of 22.6% and a viability, T/C [18] of 25.7%. It also gave a viability, T/C [19] of 3.9%, a viability, T/C [20] of 5% and a viability, T/C [21] of 2.72%. For the same molecule, the viability, T/C [22] was 2.84%, the viability, T/C [23] was 3.14% and the viability, T/C [24] was 1.95%. The viability, T/C [25] was 2.08%, the viability, T/C [26] was 2.35% and the viability, T/C [27] was 1.86%. The viability, T/C [28] was 1.3%, the viability, T/C [29] was 1.63% and the viability, T/C [30] was 0.57%. For the same molecule, the viability, T/C [31] was 0.16%, the viability, T/C [32] was 0.2% and the viability, T/C [33] was 0.25%. For the same molecule, the viability, T/C [34] was 0.19%, the viability, T/C [35] was 0.24% and the viability, T/C [36] was 0.21%.
Molecule `C=CCn1c(=O)c2cnc(Nc3ccc(N4CCN(C)CC4)cc3)nc2n1-c1cccc(C(C)(C)O)n1` + Cc1cnc(CNC(=O)c2c(=O)c3ccc(N4CCCN(C)CC4)nc3n3c2sc2ccccc23)cn1 has an IC50 (second compound 0.0316 µM) of 696 nM, an IC50 (second compound 0.1 µM) of 263 nM and an IC50 (second compound 0.316 µM) of under 31.6 nM. For the same molecule, the IC50 (second compound 1 µM) was under 31.6 nM, the IC50 (second compound 3.16 µM) was under 31.6 nM and the IC50 (second compound 10 µM) was under 31.6 nM. The viability, T/C [1] was 92.5%, the viability, T/C [2] was 77.4% and the viability, T/C [3] was 76.8%. The viability, T/C [4] was 38.5%, the viability, T/C [5] was 7.81% and the viability, T/C [6] was 10.4%. It also gave a viability, T/C [7] of 53.7%, a viability, T/C [8] of 64.7% and a viability, T/C [9] of 42.7%. The viability, T/C [10] was 32%, the viability, T/C [11] was 4.33% and the viability, T/C [12] was 7.51%. For the same molecule, the viability, T/C [13] was 19.5%, the viability, T/C [14] was 21.2% and the viability, T/C [15] was 11.9%. It also gave a viability, T/C [16] of 5.37%, a viability, T/C [17] of 2.1% and a viability, T/C [18] of 3.41%. It also gave a viability, T/C [19] of 3.56%, a viability, T/C [20] of 3.34% and a viability, T/C [21] of 2.67%. It also gave a viability, T/C [22] of 2.03%, a viability, T/C [23] of 1.76% and a viability, T/C [24] of 2.24%. The viability, T/C [25] was 2.07%, the viability, T/C [26] was 2.26% and the viability, T/C [27] was 2.31%. The viability, T/C [28] was 1.3%, the viability, T/C [29] was 0.68% and the viability, T/C [30] was 1.5%. For the same molecule, the viability, T/C [31] was 0.17%, the viability, T/C [32] was 0.27% and the viability, T/C [33] was 0.23%. The viability, T/C [34] was 0.2%, the viability, T/C [35] was 0.19% and the viability, T/C [36] was 0.22%.
With `CC(=O)O[C@H]1C(=O)[C@@]2(C)[C@H]([C@H](OC(=O)c3ccccc3)[C@]3(O)C[C@H](OC(=O)[C@H](O)[C@@H](NC(=O)c4ccccc4)c4ccccc4)C(C)=C1C3(C)C)[C@]1(OC(C)=O)CO[C@@H]1C[C@@H]2O` + Cc1cnc(CNC(=O)c2c(=O)c3ccc(N4CCCN(C)CC4)nc3n3c2sc2ccccc23)cn1 the IC50 (second compound 0.0316 µM) was under 31.6 nM, the IC50 (second compound 0.1 µM) was under 31.6 nM and the IC50 (second compound 0.316 µM) was under 31.6 nM. The IC50 (second compound 1 µM) was under 31.6 nM, the IC50 (second compound 3.16 µM) was under 31.6 nM and the IC50 (second compound 10 µM) was under 31.6 nM. The viability, T/C [1] was 40.6%, the viability, T/C [2] was 13.7% and the viability, T/C [3] was 8.87%. It also gave a viability, T/C [4] of 6.32%, a viability, T/C [5] of 6.9% and a viability, T/C [6] of 11.3%. The viability, T/C [7] was 31.5%, the viability, T/C [8] was 14% and the viability, T/C [9] was 6.78%. The viability, T/C [10] was 6.48%, the viability, T/C [11] was 6.61% and the viability, T/C [12] was 7.71%. The viability, T/C [13] was 14.6%, the viability, T/C [14] was 9.67% and the viability, T/C [15] was 5.73%. It also gave a viability, T/C [16] of 5.21%, a viability, T/C [17] of 4.57% and a viability, T/C [18] of 6.73%. It also gave a viability, T/C [19] of 3.73%, a viability, T/C [20] of 3.78% and a viability, T/C [21] of 3.68%. The viability, T/C [22] was 2.27%, the viability, T/C [23] was 2.21% and the viability, T/C [24] was 3.57%. The viability, T/C [25] was 2.95%, the viability, T/C [26] was 2.49% and the viability, T/C [27] was 1.98%. For the same molecule, the viability, T/C [28] was 1.77%, the viability, T/C [29] was 1.78% and the viability, T/C [30] was 2.45%. For the same molecule, the viability, T/C [31] was 0.16%, the viability, T/C [32] was 0.18% and the viability, T/C [33] was 0.19%. The viability, T/C [34] was 0.14%, the viability, T/C [35] was 0.17% and the viability, T/C [36] was 0.19%.
